Laboratory results reported in ChEMBL document CHEMBL4610121, “Rapid Elaboration of Fragments into Leads by X-ray Crystallographic Screening of Parallel Chemical Libraries (REFiLX)” (J Med Chem, 2020).
Converted amounts (≈) assume the structure as drawn.

What was measured:
[1] = target: T1, Thiol:disulfide interchange protein DsbA (Escherichia coli (strain K12), UniProt P0AEG4); assay: Binding affinity to uniformly labeled 15N oxidized Escherichia coli DsbA by 1H-15N HSQC NMR spectroscopy
T1 sequence (P0AEG4 whole entry): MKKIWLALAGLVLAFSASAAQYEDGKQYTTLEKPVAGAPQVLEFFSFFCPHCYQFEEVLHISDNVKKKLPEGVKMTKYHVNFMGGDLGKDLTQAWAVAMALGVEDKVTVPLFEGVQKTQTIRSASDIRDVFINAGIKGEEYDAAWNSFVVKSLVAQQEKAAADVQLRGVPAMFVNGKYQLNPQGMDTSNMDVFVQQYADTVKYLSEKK

[2] = Solubility in PH 7.4 buffer by 1D 1H qNMR analysis; format: physicochemical

| Kd [1] [µM] | solubility [2] [µM] | Structure (SMILES) |
| --- | --- | --- |
| 1100 | 1000 (≈ 407 µg/mL) | Cc1cc(Oc2ccc(CC(=O)NCCN3CCCN(C)CC3)cc2)ccc1C#N |
| 230 | 500 (≈ 195 µg/mL) | Cc1nc(CCN(C)C(=O)Cc2ccc(Oc3ccc(C#N)c(C)c3)cc2)no1 |
| 430 | 1000 (≈ 377 µg/mL) | CC(=O)N1CCN(C(=O)Cc2ccc(Oc3ccc(C#N)c(C)c3)cc2)CC1 |
| > 1000 |  | N#Cc1ccc(Oc2ccc(O)cc2)cc1 |
|  | 1000 (≈ 267 µg/mL) | Cc1cc(Oc2ccc(CC(=O)O)cc2)ccc1C#N |
| 290 | 1000 (≈ 380 µg/mL) | Cc1cc(Oc2ccc(CC(=O)N3CCOCC3C(=O)O)cc2)ccc1C#N (racemic) |
| 365 | 500 (≈ 168 µg/mL) | Cc1cc(Oc2ccc(CC(=O)N3CCOCC3)cc2)ccc1C#N |
| 62 | 250 (≈ 97.1 µg/mL) | CCN(CCn1cccn1)C(=O)Cc1ccc(Oc2ccc(C#N)c(C)c2)cc1 |
| 480 | 1000 (≈ 363 µg/mL) | Cc1cc(Oc2ccc(CC(=O)N3CCN(C)C(=O)C3)cc2)ccc1C#N |
